We go through 23 compounds from US10730870B2, “Compounds and methods for the enhanced degradation of targeted proteins” (Arvinas, Inc., priority 2015, dated 2020).

pIC50: −log10 of the molar value.

The target in the experiment is VHL (Homo sapiens (Human), UniProt P40337). As to the kind of experiment: VHL fluorescence polarization (FP) competition assay. The class given is binding. A general note: In fluorescence polarisation assays a small probe gives low polarisation when free and higher when bound to something large.

As to `CC(C)[C@@H](C(=O)N1C[C@H](O)C[C@H]1C(=O)NCc1ccc(-c2scnc2Br)cc1)N1Cc2ccccc2C1=O` [Example 1, (2S,4R)—N-(4-(4-bromothiazol-5-yl)benzyl)-4-hydroxy-1-((S)-3-methyl-2-(1-oxoisoindolin-2-yl)butanoyl)pyrrolidine-2-carboxamide], the pIC50 is 5.62 (1% in DMSO) and 5.64 (10% in DMSO).
As for `CC(C)[C@@H](C(=O)N1C[C@H](O)C[C@H]1C(=O)NCc1ccc(-c2scnc2C2CC2)cc1)N1Cc2ccccc2C1=O` [Example 2, (2S,4R)—N-(4-(4-cyclopropylthiazol-5-yl)benzyl)-4-hydroxy-1-((S)-3-methyl-2-(1-oxoisoindolin-2-yl)butanoyl)pyrrolidine-2-carboxamide], the pIC50 by setting is: (0.25% in DMSO) 5.54; (1% in DMSO) 6.14; (10% in DMSO) 6.27.
For `C=Cc1ncsc1-c1ccc(CNC(=O)[C@@H]2C[C@@H](O)CN2C(=O)[C@H](C(C)C)N2Cc3ccccc3C2=O)cc1` [Example 4, (2S,4R)-4-hydroxy-1-((S)-3-methyl-2-(1-oxoisoindolin-2-yl)butanoyl)-N-(4-(4-vinylthiazol-5-yl)benzyl)pyrrolidine-2-carboxamide], the negative-log IC50 (pIC50) was 5.48 (0.25% in DMSO), 5.91 (1% in DMSO) and 5.71 (10% in DMSO).
The matching figures for `CCc1ncsc1-c1ccc(CNC(=O)[C@@H]2C[C@@H](O)CN2C(=O)[C@H](C(C)C)N2Cc3ccccc3C2=O)cc1` [Example 5, (2S,4R)—N-(4-(4-ethylthiazol-5-yl)benzyl)-4-hydroxy-1-((S)-3-methyl-2-(1-oxoisoindolin-2-yl)butanoyl)pyrrolidine-2-carboxamide]: 5.11, 6.10 and 5.80.
The matching figures for `Cc1ncsc1-c1ccc(CNC(=O)[C@@H]2C[C@@H](O)CN2C(=O)[C@H](C(C)C)N2Cc3ccccc3C2=O)cc1` [Example 6, (2S,4R)-4-hydroxy-1-((S)-3-methyl-2-(1-oxoisoindolin-2-yl)butanoyl)-N-(4-(4-methylthiazol-5-yl)benzyl)pyrrolidine-2-carboxamide]: 5.20, 6.16 and 5.83.
As to `Cc1ncsc1-c1ccc(CNC(=O)[C@@H]2C[C@@H](O)CN2C(=O)[C@H](C(C)C)N2Cc3cccc(Cl)c3C2=O)cc1` [Example 7, (2S,4R)-1-((S)-2-(7-cloro-1-oxoisoindolin-2-yl)-3-methylbutanoyl)-4-hydroxy-N-(4-(4-methylthiazol-5-yl)benzyl)pyrrolidine-2-carboxamide], the negative-log IC50 (pIC50) is 5.12 (1% in DMSO) and 5.07 (10% in DMSO).
Regarding `Cc1ncsc1-c1ccc(CNC(=O)[C@@H]2C[C@@H](O)CN2C(=O)[C@H](C(C)C)N2Cc3cccc(F)c3C2=O)cc1` [Example 8, (2S,4R)-1-((S)-2-(7-fluoro-1-oxoisoindolin-2-yl)-3-methylbutanoyl)-4-hydroxy-N-(4-(4-methylthiazol-5-yl)benzyl)pyrrolidine-2-carboxamide], the pIC50 (0.25% in DMSO) was 5.52, the pIC50 (1% in DMSO) is 6.21 and the pIC50 (10% in DMSO) was 5.88.
The matching figures for `Cc1ncsc1-c1ccc(CNC(=O)[C@@H]2C[C@@H](O)CN2C(=O)[C@H](C(C)C)N2Cc3ccc(F)cc3C2=O)cc1` [Example 9]: 5.89, 6.51 and 6.30.
For `Cc1ncsc1-c1ccc(CNC(=O)[C@@H]2C[C@@H](O)CN2C(=O)[C@@H](C(C)C)N2Cc3ccc(F)cc3C2=O)cc1` [Example 10, (2S,4R)-1-((R)-2-(6-fluoro-1-oxoisoindolin-2-yl)-3-methylbutanoyl)-4-hydroxy-N-(4-(4-methylthiazol-5-yl)benzyl)pyrrolidine-2-carboxamide], the negative-log IC50 (pIC50) reads like this: (1% in DMSO) ~5.17; (10% in DMSO) 3.53.
`CCCC(=O)N[C@H](C(=O)N1C[C@H](O)C[C@H]1C(=O)NCc1ccc(-c2scnc2C)cc1)C(C)(C)C` [Example 13, (2S,4R)-1-((S)-2-butyramido-3,3-dimethylbutanoyl)-4-hydroxy-N-(4-(4-methylthiazol-5-yl)benzyl)pyrrolidine-2-carboxamide]: the pIC50 was 5.47 (0.25% in DMSO), 5.87 (1% in DMSO) and 5.53 (10% in DMSO).
In the same order, the values of `Cc1ncsc1-c1ccc(CNC(=O)[C@@H]2C[C@@H](O)CN2C(=O)[C@@H](NC(=O)C(C)(C)C)C(C)(C)C)cc1` [Example 14, (2S,4R)-1-((S)-3,3-dimethyl-2-pivalamidobutanoyl)-4-hydroxy-N-(4-(4-methylthiazol-5-yl)benzyl)pyrrolidine-2-carboxamide] are 5.15, 5.33 and 4.88.
`COc1cccc2c1C(=O)N([C@H](C(=O)N1C[C@H](O)C[C@H]1C(=O)NCc1ccc(-c3scnc3C)cc1)C(C)C)C2` [Example 15, (2S,4R)-4-hydroxy-1-((S)-2-(7-methoxy-1-oxoisoindolin-2-yl)-3-methylbutanoyl)-N-(4-(4-methylthiazol-5-yl)benzyl)pyrrolidine-2-carboxamide]: the negative logarithm of the IC50 (pIC50) was 5.91 (0.25% in DMSO), 4.61 (1% in DMSO) and 4.09 (10% in DMSO).
The matching figures for `Cc1ncsc1-c1ccc(CNC(=O)[C@@H]2C[C@@H](O)CN2C(=O)[C@H](C(C)C)N2Cc3cc(F)ccc3C2=O)cc1` [Example 16, (2S,4R)-1-((S)-2-(5-fluoro-1-oxoisoindolin-2-yl)-3-methylbutanoyl)-4-hydroxy-N-(4-(4-methylthiazol-5-yl)benzyl)pyrrolidine-2-carboxamide]: 5.53, 6.58 and 5.74.
In the same order, the values of `Cc1ncsc1-c1ccc(CNC(=O)[C@@H]2C[C@@H](O)CN2C(=O)[C@H](C(C)C)N2Cc3ccc(C#N)cc3C2=O)cc1` [Example 17, (2S,4R)-1-((S)-2-(6-cyano-1-oxoisoindolin-2-yl)-3-methylbutanoyl)-4-hydroxy-N-(4-(4-methylthiazol-5-yl)benzyl)pyrrolidine-2-carboxamide] are 5.66, 6.50 and 5.97.
`Cc1ncsc1-c1ccc(CNC(=O)[C@@H]2C[C@@H](O)CN2C(=O)[C@@H](NC(=O)CC(C)C)C(C)(C)C)cc1` [Example 18, (2S,4R)-1-((S)-3,3-dimethyl-2-(3-methylbutanamido)butanoyl)-4-hydroxy-N-(4-(4-methylthiazol-5-yl)benzyl)pyrrolidine-2-carboxamide]: the pIC50 reads like this: (0.25% in DMSO) 5.26; (1% in DMSO) 6.07; (10% in DMSO) 5.57.
Turning to `Cc1ncsc1-c1ccc(CNC(=O)[C@@H]2C[C@@H](O)CN2C(=O)[C@@H](NC(=O)CC2CCCCC2)C(C)(C)C)cc1` [Example 19, (2S,4R)-1-((S)-2-(2-cyclohexylacetamido)-3,3-dimethylbutanoyl)-4-hydroxy-N-(4-(4-methylthiazol-5-yl)benzyl)pyrrolidine-2-carboxamide], the pIC50 (0.25% in DMSO) is 5.42, the negative-log IC50 (pIC50) (1% in DMSO) was 6.03 and the pIC50 (10% in DMSO) is 5.78.
The matching figures for `Cc1ncsc1-c1ccc(CNC(=O)[C@@H]2C[C@@H](O)CN2C(=O)[C@@H](NC(=O)CCC2CCCCC2)C(C)(C)C)cc1` [Example 20, (2S,4R)-1-((S)-2-(3-cyclohexylpropanamido)-3,3-dimethylbutanoyl)-4-hydroxy-N-(4-(4-methylthiazol-5-yl)benzyl)pyrrolidine-2-carboxamide]: 5.30, 5.98 and 5.94.
The compound `CSC[C@H](NC(=O)CCC(C)C)C(=O)N1C[C@H](O)C[C@H]1C(=O)NCc1ccc(-c2scnc2C)cc1` [Example 22, (2S,4R)-4-hydroxy-1-((R)-2-(4-methylpentanamido)-3-(methylthio)propanoyl)-N-(4-(4-methylthiazol-5-yl)benzyl)pyrrolidine-2-carboxamide] had a pIC50 (1% in DMSO) of 5.20 and a pIC50 (10% in DMSO) of 5.08.
For `CC(C)[C@@H](C(=O)N1C[C@H](O)C[C@H]1C(=O)NCc1ccc(Br)cc1)N1Cc2ccccc2C1=O` [Example 23, (2S,4R)—N-(4-bromobenzyl)-4-hydroxy-1-((S)-3-methyl-2-(1-oxoisoindolin-2-yl)butanoyl)pyrrolidine-2-carboxamide], the negative logarithm of the IC50 (pIC50) (0.25% in DMSO) was 5.94, the negative-log IC50 (pIC50) (1% in DMSO) is 5.60 and the negative-log IC50 (pIC50) (10% in DMSO) was 5.22.
Turning to `CC(C)[C@@H](C(=O)N1C[C@H](O)C[C@H]1C(=O)N[C@@H](C)c1ccc(Br)cc1)N1Cc2ccccc2C1=O` [Example 24, (2S,4R)—N—((S)-1-(4-bromophenyl)ethyl)-4-hydroxy-1-((S)-3-methyl-2-(1-oxoisoindolin-2-yl)butanoyl)pyrrolidine-2-carboxamide], the pIC50 was 5.86 (0.25% in DMSO), 5.06 (1% in DMSO) and 4.55 (10% in DMSO).
Turning to `Cc1ncsc1-c1ccc(CNC(=O)[C@@H]2C[C@@H](O)CN2C(=O)[C@H](C(C)C)N2Cc3cc(Br)ccc3C2=O)cc1` [Example 25, (2S,4R)-1-((S)-2-(5-bromo-1-oxoisoindolin-2-yl)-3-methylbutanoyl)-4-hydroxy-N-(4-(4-methylthiazol-5-yl)benzyl)pyrrolidine-2-carboxamide], the negative-log IC50 (pIC50) by setting is: (0.25% in DMSO) 5.62; (1% in DMSO) 5.88; (10% in DMSO) 5.78.
In the case of `Cc1ncsc1-c1ccc(CNC(=O)[C@@H]2C[C@@H](O)CN2C(=O)[C@H](C(C)C)N2Cc3c(Br)cccc3C2=O)cc1` [Example 26, (2S,4R)-1-((S)-2-(4-bromo-1-oxoisoindolin-2-yl)-3-methylbutanoyl)-4-hydroxy-N-(4-(4-methylthiazol-5-yl)benzyl)pyrrolidine-2-carboxamide], the pIC50 was 5.53 (0.25% in DMSO), 6.03 (1% in DMSO) and 6.36 (10% in DMSO).
As for `Cc1ncsc1-c1ccc(CNC(=O)[C@@H]2C[C@@H](O)CN2C(=O)[C@@H](NC(=O)C(C)C)C(C)(C)C)cc1` [Example 27, (2S,4R)-4-hydroxy-1-((S)-2-isobutyramido-3,3-dimethylbutanoyl)-N-(4-(4-methylthiazol-5-yl)benzyl)pyrrolidine-2-carboxamide], the pIC50 runs as follows: (0.25% in DMSO) ~5.80; (1% in DMSO) 5.52; (10% in DMSO) 5.08.

As a reminder, the pIC50 is the negative decadic logarithm of the IC50, by convention in mol/L.
